For 25 molecules, EC50 and IC50 results are on record in ChEMBL document CHEMBL2010765, “Structure-activity relationship (SAR) development and discovery of potent indole-based inhibitors of the hepatitis C virus (HCV) NS5B polymerase” (J Med Chem, 2012).

Assay [1] relates to Hepatitis C virus. Description: Antiviral activity against HCV infected in human hepatoma cells. Format: functional, organism-based, Hepacivirus hominis.
The test system of assay [2] is Hepatitis C virus. Description: Inhibition of HCV subtype 1b NS5B Cdelta21 RNA dependent RNA polymerase expressed in Escherichia coli JM109 assessed as inhibition of [alpha32P]CTP incorporation after 1 hr by scintillation assay. The note with it: JM 109, 1 h. Set-up: species or system Hepatitis C virus subtype 1b.

Consider `O=C(O)c1c(-c2ccccc2F)c2cc(Cl)ccc2n1Cc1ccccc1`, for which, in assay [1], the EC50 is > 100000 nM.

As for `Nc1cc(Cn2c(C(=O)O)c(-c3ccc[nH]c3=O)c3c(Br)cccc32)ccn1`, the IC50 in assay [2] is 4000 nM. The molecule also showed a concentration giving a half-maximal response (EC50) in assay [1] of 100 nM.

`O=C(O)c1c(-c2ccc[nH]c2=O)c2cc(Br)ccc2n1Cc1cc(F)ccc1F`: in assay [2], the IC50 turned out to be 3 nM. The concentration giving a half-maximal response (EC50) in assay [1] was determined as 100 nM.

For the molecule `CC(C)(C)c1ccc2c(c1)c(-c1ccc[nH]c1=O)c(C(=O)O)n2Cc1cc(F)ccc1F`, in assay [2], the 50% inhibitory concentration (IC50) worked out at 8 nM. The EC50 in assay [1] was determined as 100 nM.

In the case of `Cc1ccc(Cn2c(C(=O)O)c(-c3ccc[nH]c3=O)c3cc(C(F)(F)F)ccc32)c(C)c1`, the half-inhibitory concentration (IC50) in assay [2] was 16 nM. Further, the EC50 in assay [1] worked out at 100 nM.

As for `Nc1cc(Cn2c(C(=O)O)c(-c3ccc[nH]c3=O)c3cc(O)ccc32)ccn1`, in assay [2], the IC50 was > 20000 nM. Also, the concentration for a half-maximal effect (EC50) in assay [1] amounted to 100 nM.

As for `CC(=O)c1ccc2c(c1)c(-c1ccc[nH]c1=O)c(C(=O)O)n2Cc1ccnc(N)c1`, in assay [2], the concentration for half-maximal inhibition (IC50) came to 330 nM. Further, in assay [1], the response was half-maximal at 100 nM (EC50).

Turning to `Nc1cc(Cn2c(C(=O)O)c(-c3ccc[nH]c3=O)c3cc(-c4cccc(=O)[nH]4)ccc32)ccn1`, in assay [2], the IC50 amounted to 7000 nM. Besides, the response in assay [1] was half-maximal at 100 nM (EC50).

As for `O=C(O)c1c(-c2ccc[nH]c2=O)c2cc(C(F)(F)F)ccc2n1Cc1ccc(OC(F)F)cc1`, in assay [2], the IC50 came to 67 nM. The EC50 in assay [1] was 100 nM.

On to `O=C(O)c1c(-c2ccc[nH]c2=O)c2cc(C(F)(F)F)ccc2n1Cc1ccccc1F`, for which the IC50 in assay [2] amounted to 9 nM. In assay [1], the midpoint of the response, the EC50, lay at 100 nM.

For `Cc1cccc(Cn2c(C(=O)O)c(-c3ccc[nH]c3=O)c3cc(C(F)(F)F)ccc32)c1F`, the IC50 in assay [2] was found to be 5 nM. For the same molecule, the midpoint of the response in assay [1], the EC50, lay at 100 nM.

With `O=C(O)c1c(-c2ccc[nH]c2=O)c2cc(CC(F)(F)F)ccc2n1Cc1cc(F)ccc1F`, in assay [2], the IC50 came out at 8 nM. Besides, in assay [1], a half-maximal effect (EC50) was put at 100 nM.

On to `Cc1ccc2c(c1)c(-c1ccc[nH]c1=O)c(C(=O)O)n2Cc1cc(F)ccc1F`, for which the IC50 in assay [2] worked out at 8 nM. Also, the EC50 in assay [1] was determined as 1100 nM.

In the case of `COc1ccc2c(c1)c(-c1ccc[nH]c1=O)c(C(=O)O)n2Cc1cc(F)ccc1F`, the IC50 in assay [2] is 15 nM. In assay [1], this molecule came in with a 50% effective concentration (EC50) of 100 nM.

In the case of `CC1(c2ccc3c(c2)c(-c2ccc[nH]c2=O)c(C(=O)O)n3Cc2cc(F)ccc2F)CC1`, in assay [2], the IC50 amounted to 9 nM. In assay [1], this molecule returned an EC50 of 100 nM.

`Nc1cc(Cn2c(C(=O)O)c(-c3ccc[nH]c3=O)c3cc(Cl)ccc32)ccn1`: the IC50 in assay [2] is 53 nM.

Consider `O=C(O)c1c(-c2ccc[nH]c2=O)c2cc(OC(F)(F)F)ccc2n1Cc1cc(F)ccc1F`, for which the IC50 in assay [2] was determined as 24 nM. In assay [1], this molecule had a half-maximal effective concentration (EC50) of 100 nM.

Consider `NC(=O)c1ccc(F)c(Cn2c(C(=O)O)c(-c3ccc[nH]c3=O)c3cc(C(F)(F)F)ccc32)c1`, for which, in assay [2], the IC50 is 7 nM. In addition, a half-maximal effect in assay [1] (EC50) was put at 100 nM.

Turning to `CC/C=C/c1ccc2c(c1)c(-c1ccc[nH]c1=O)c(C(=O)O)n2Cc1cc(F)ccc1F`, the IC50 in assay [2] amounted to 150 nM. This molecule also displayed an EC50 in assay [1] of 100 nM.

`Nc1cc(Cn2c(C(=O)O)c(-c3ccc[nH]c3=O)c3c(Cl)c(Cl)ccc32)ccn1`: the IC50 in assay [2] came out at 750 nM. In assay [1], this molecule came in with an EC50 of 100 nM.

Regarding `COc1ccc(Cn2c(C(=O)O)c(-c3ccc[nH]c3=O)c3cc(C(F)(F)F)ccc32)cc1`, the IC50 in assay [2] stood at 25 nM. Further, in assay [1], a half-maximal response (EC50) required 100 nM.

For the molecule `Nc1cc(Cn2c(C(=O)O)c(-c3ccc[nH]c3=O)c3cc(C4CC4)ccc32)ccn1`, in assay [2], the IC50 worked out at 65 nM. Besides, it took 100 nM to reach a half-maximal effect in assay [1] (EC50).

Take `O=C(O)c1c(-c2ccc[nH]c2=O)c2cc(C(F)(F)F)ccc2n1Cc1cc(F)ccc1F`: the IC50 in assay [2] came to 4 nM. It took 100 nM to reach a half-maximal effect in assay [1] (EC50).

With `CS(=O)(=O)c1ccc2c(c1)c(-c1ccc[nH]c1=O)c(C(=O)O)n2Cc1ccnc(N)c1`, in assay [2], the IC50 was 1400 nM. The EC50 in assay [1] was 100 nM.

In the case of `CCc1ccc2c(c1)c(-c1ccc[nH]c1=O)c(C(=O)O)n2Cc1cc(F)ccc1F`, the IC50 in assay [2] came out at 4 nM. In addition, the EC50 in assay [1] was determined as 100 nM.

As a reminder, the EC50 is the concentration needed to bring the measured effect to its halfway point. The IC50 is the midpoint of a concentration-inhibition curve.
